According to ChEMBL document CHEMBL3885861, “Open TG-GATES”:

Species on record: Rattus norvegicus
Assay: Open TG-GATES - Regimen: Single
Assay type: toxicity, organism-based, Sprague-Dawley
Set-up: regimen Single, gender Male, age 6 weeks
Conditions: in vivo, po, route gavage; for APTT / Bas / Eos / Fbg / Hb / Ht / Lym / MCHC / MCV / Mono / Neu / PT / Plat / RBC / Ret / WBC: tissue Blood; for KIDNEY_L / KIDNEY_R / KIDNEY_TOTAL: tissue Kidney; for LIVER: tissue Liver; for ALP / ALT / AST / BUN / CRE / Ca / Cl / DBIL / GLC / IP / K / LDH / Na / PL / RALB / TBIL / TC / TG / TP / gamma-GTP: tissue Plasma
[1] = 0 mg/kg, 3 h, dose level Control
[2] = 0 mg/kg, 6 h, dose level Control
[3] = 0 mg/kg, 9 h, dose level Control
[4] = 0 mg/kg, 24 h, dose level Control

Compound: CN(C)C(=N)N=C(N)N [METFORMIN]
- TERMINAL_BW [1]: 200.9 g
- APTT [1]: 16.9 s
- Bas [1]: 0%
- Eos [1]: 0.6%
- Fbg [1]: 245.6 mg/dL
- Hb [1]: 13.1 g/dL
- Ht [1]: 39.6%
- Lym [1]: 76.8%
- MCHC [1]: 33%
- MCV [1]: 65.3 fL
- Mono [1]: 3.4%
- Neu [1]: 18.4%
- PT [1]: 12.3 s
- Plat [1]: 111.6 x10_4/uL
- RBC [1]: 606.6 x10_4/ul
- Ret [1]: 10.1%
- WBC [1]: 96.1 x10_2/uL
- KIDNEY_L [1]: 0.9 g
- KIDNEY_R [1]: 0.9 g
- KIDNEY_TOTAL [1]: 1.8 g
- LIVER [1]: 8.5 g
- ALP [1]: 1612 IU/L
- ALT [1]: 43.6 IU/L
- AST [1]: 74.2 IU/L
- BUN [1]: 9.2 mg/dL
- CRE [1]: 0.2 mg/dL
- Ca [1]: 11.1 mg/dL
- Cl [1]: 104 meq/L
- DBIL [1]: 0.016 mg/dL
- GLC [1]: 179.8 mg/dL
- IP [1]: 9.2 mg/dL
- K [1]: 4.2 meq/L
- LDH [1]: 58.2 IU/L
- Na [1]: 140 meq/L
- PL [1]: 136.6 mg/dL
- RALB [1]: 2.5 g/dL
- TBIL [1]: 0.052 mg/dL
- TC [1]: 87 mg/dL
- TG [1]: 42.2 mg/dL
- TP [1]: 5.2 g/dL
- gamma-GTP [1]: 1.4 IU/L
- TERMINAL_BW [2]: 202.6 g
- APTT [2]: 16.1 s
- Bas [2]: 0%
- Eos [2]: 0.8%
- Fbg [2]: 261 mg/dL
- Hb [2]: 12.9 g/dL
- Ht [2]: 38.9%
- Lym [2]: 77.2%
- MCV [2]: 62.9 fL
- Mono [2]: 3%
- Neu [2]: 18.4%
- PT [2]: 12.2 s
- Plat [2]: 113.4 x10_4/uL
- RBC [2]: 618.4 x10_4/ul
- Ret [2]: 9.2%
- WBC [2]: 92.1 x10_2/uL
- KIDNEY_L [2]: 0.9 g
- KIDNEY_R [2]: 0.9 g
- KIDNEY_TOTAL [2]: 1.8 g
- LIVER [2]: 8 g
- ALP [2]: 1285 IU/L
- ALT [2]: 44.8 IU/L
- AST [2]: 78.8 IU/L
- BUN [2]: 7.6 mg/dL
- CRE [2]: 0.1 mg/dL
- Ca [2]: 10.7 mg/dL
- Cl [2]: 104.8 meq/L
- DBIL [2]: 0.006 mg/dL
- GLC [2]: 161 mg/dL
- IP [2]: 9.9 mg/dL
- K [2]: 4.1 meq/L
- LDH [2]: 64 IU/L
- Na [2]: 139.4 meq/L
- PL [2]: 121 mg/dL
- RALB [2]: 2.4 g/dL
- TBIL [2]: 0.046 mg/dL
- TG [2]: 27.2 mg/dL
- TP [2]: 5 g/dL
- gamma-GTP [2]: 1 IU/L
- TERMINAL_BW [3]: 201 g
- APTT [3]: 16 s
- Bas [3]: 0%
- Eos [3]: 1%
- Fbg [3]: 244.8 mg/dL
- Hb [3]: 12.4 g/dL
- Lym [3]: 73.8%
- MCV [3]: 64.5 fL
- Mono [3]: 3.2%
- Neu [3]: 21.4%
- PT [3]: 12.2 s
- Plat [3]: 107.6 x10_4/uL
- RBC [3]: 577.8 x10_4/ul
- Ret [3]: 10%
- WBC [3]: 75.6 x10_2/uL
- KIDNEY_L [3]: 0.9 g
- KIDNEY_R [3]: 0.9 g
- KIDNEY_TOTAL [3]: 1.7 g
- LIVER [3]: 7.7 g
- ALP [3]: 1175 IU/L
- ALT [3]: 41.6 IU/L
- AST [3]: 69.6 IU/L
- BUN [3]: 9 mg/dL
- CRE [3]: 0.1 mg/dL
- Ca [3]: 10.6 mg/dL
- Cl [3]: 105 meq/L
- DBIL [3]: 0.008 mg/dL
- GLC [3]: 164.8 mg/dL
- IP [3]: 10.5 mg/dL
- K [3]: 4 meq/L
- LDH [3]: 49 IU/L
- Na [3]: 141 meq/L
- PL [3]: 136.4 mg/dL
- RALB [3]: 2.5 g/dL
- TBIL [3]: 0.042 mg/dL
- TC [3]: 87 mg/dL
- TG [3]: 35.6 mg/dL
- TP [3]: 5.1 g/dL
- gamma-GTP [3]: 1 IU/L
- TERMINAL_BW [4]: 207.9 g
- APTT [4]: 16.4 s
- Bas [4]: 0%
- Eos [4]: 1%
- Fbg [4]: 230.4 mg/dL
- Hb [4]: 13 g/dL
- Ht [4]: 38.7%
- Lym [4]: 77%
- MCHC [4]: 33.5%
- Mono [4]: 3.8%
- Neu [4]: 17.8%
- PT [4]: 12.5 s
- Plat [4]: 115 x10_4/uL
- RBC [4]: 595.2 x10_4/ul
- Ret [4]: 8.9%
- WBC [4]: 101.4 x10_2/uL
- KIDNEY_L [4]: 0.9 g
- KIDNEY_R [4]: 0.9 g
- KIDNEY_TOTAL [4]: 1.8 g
- LIVER [4]: 10 g
- ALP [4]: 1728.6 IU/L
- ALT [4]: 49.8 IU/L
- AST [4]: 78.2 IU/L
- BUN [4]: 16 mg/dL
- CRE [4]: 0.2 mg/dL
- Ca [4]: 11.4 mg/dL
- Cl [4]: 103.8 meq/L
- DBIL [4]: 0.012 mg/dL
- GLC [4]: 173 mg/dL
- IP [4]: 8.6 mg/dL
- K [4]: 3.9 meq/L
- LDH [4]: 63.6 IU/L
- Na [4]: 141.2 meq/L
- PL [4]: 139 mg/dL
- RALB [4]: 2.6 g/dL
- TBIL [4]: 0.038 mg/dL
- TG [4]: 89.6 mg/dL
- TP [4]: 5.5 g/dL
- gamma-GTP [4]: 1 IU/L
- TERMINAL_BW (100 mg/kg, 3 h, dose level Low): 201 g
